Data: PubChem BioAssay (NCI)
“And” between values parts separate entries of the source, which are not always exact repeats. Identical values can stand only once.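 Exposure lasted 48 hours, with cells grown in 96-well plates and compounds tested at five concentrations. Here, GI50 denotes the concentration required for 50% inhibition of growth. TGI marks complete inhibition of growth.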

Assays:
Assay in all cases: DTP human tumour cell line panel, 48 h
CCRF-CEM leukemia = tested on: CCRF-CEM leukemia
COLO 205 colon = tested on: COLO 205 colon
HCT-116 colon = tested on: HCT-116 colon
HS 578T breast = tested on: HS 578T breast
MDA-MB-435 = tested on: MDA-MB-435
SF-295 CNS = tested on: SF-295 CNS
SK-MEL-2 melanoma = tested on: SK-MEL-2 melanoma
SK-MEL-5 melanoma = tested on: SK-MEL-5 melanoma
UACC-257 melanoma = tested on: UACC-257 melanoma
SNB-19 CNS = tested on: SNB-19 CNS

Q: Which TGI (CCRF-CEM leukemia) does the source give for `COC(=O)c1c2c(cc3c1CC1(C3)Cc3cc4c(c(C(=O)OC)c3C1)CCCC4)CCCC2` here?
A: 96 µM

Q: And the TGI (COLO 205 colon)?
A: > 100 µM

Q: And the TGI (HCT-116 colon)?
A: > 100 µM

Q: What about the TGI (HS 578T breast) of the same molecule?
A: > 100 µM

Q: What about the TGI (MDA-MB-435) of the same molecule?
A: > 100 µM

Q: What about the TGI (SF-295 CNS) of the same molecule?
A: > 100 µM

Q: And the TGI (SK-MEL-2 melanoma)?
A: 5.18 µM

Q: What about the TGI (SK-MEL-5 melanoma) of the same molecule?
A: > 100 µM

Q: What about the TGI (UACC-257 melanoma) of the same molecule?
A: > 100 µM

Q: For `O=C(c1cc2ccccc2cc1O)N1CCCCC1`, which TGI (CCRF-CEM leukemia) is on record?
A: 42.6 µM

Q: What about the TGI (COLO 205 colon) of the same molecule?
A: > 100 µM

Q: And the TGI (HCT-116 colon)?
A: > 100 µM

Q: And the TGI (HS 578T breast)?
A: > 100 µM

Q: And the TGI (MDA-MB-435)?
A: > 100 µM

Q: And the TGI (SF-295 CNS)?
A: > 100 µM

Q: And the TGI (SK-MEL-2 melanoma)?
A: 46.5 µM

Q: And the TGI (SK-MEL-5 melanoma)?
A: 54.6 µM

Q: What about the TGI (SNB-19 CNS) of the same molecule?
A: > 100 µM

Q: And the TGI (UACC-257 melanoma)?
A: > 100 µM

Q: What does the source list for `CC[C@H]1CN2CCc3cc(OC)c(OC)cc3[C@@H]2C[C@@H]1C[C@H]1NCCc2cc(OC)c(OC)cc21`?
A: GI50 (CCRF-CEM leukemia): 0.0215 µM; TGI (CCRF-CEM leukemia): 0.0656 µM; TGI (COLO 205 colon): 0.0283 µM and 0.0201 µM; TGI (HCT-116 colon): 0.0805 µM and 0.153 µM; TGI (HS 578T breast): 0.0665 µM; TGI (MDA-MB-435): 0.0442 µM; TGI (SK-MEL-2 melanoma): 0.111 µM and 0.17 µM; TGI (SK-MEL-5 melanoma): 0.0701 µM and 0.0855 µM; TGI (UACC-257 melanoma): 0.361 µM and 0.529 µM

Q: Which GI50 (CCRF-CEM leukemia) does the source give for `COc1ccc2cc(-c3ccc(-c4ccc(C(=N)N)s4)s3)ccc2c1` here?
A: 1.51 µM

Q: What about the TGI (CCRF-CEM leukemia) of the same molecule?
A: 4.21 µM

Q: And the GI50 (COLO 205 colon)?
A: 2.04 µM

Q: What about the TGI (COLO 205 colon) of the same molecule?
A: 4.24 µM

Q: And the GI50 (HCT-116 colon)?
A: 2.08 µM

Q: And the TGI (HCT-116 colon)?
A: 4.11 µM

Q: And the GI50 (HS 578T breast)?
A: 16.6 µM

Q: What about the TGI (HS 578T breast) of the same molecule?
A: 50 µM

Q: What about the GI50 (MDA-MB-435) of the same molecule?
A: 2.01 µM

Q: What about the TGI (MDA-MB-435) of the same molecule?
A: 4.48 µM

Q: And the GI50 (SF-295 CNS)?
A: 5.07 µM

Q: What about the TGI (SF-295 CNS) of the same molecule?
A: 17.6 µM

Q: And the GI50 (SK-MEL-2 melanoma)?
A: 2.66 µM

Q: What about the TGI (SK-MEL-2 melanoma) of the same molecule?
A: 6.7 µM

Q: And the GI50 (SK-MEL-5 melanoma)?
A: 16.1 µM

Q: And the TGI (SK-MEL-5 melanoma)?
A: 30.2 µM

Q: What about the GI50 (SNB-19 CNS) of the same molecule?
A: 2.13 µM

Q: And the TGI (SNB-19 CNS)?
A: > 100 µM

Q: And the GI50 (UACC-257 melanoma)?
A: 19.6 µM

Q: And the TGI (UACC-257 melanoma)?
A: 35.4 µM

Q: How did the TGI (CCRF-CEM leukemia) turn out when `COc1ccc2cc3c4cc5c(cc4cc[n+]3cc2c1OC)OCO5` was run?
A: 35.5 µM

Q: What about the TGI (COLO 205 colon) of the same molecule?
A: 6.73 µM

Q: And the TGI (HCT-116 colon)?
A: > 100 µM

Q: What about the TGI (HS 578T breast) of the same molecule?
A: 31.3 µM

Q: And the TGI (MDA-MB-435)?
A: 22.9 µM

Q: What about the TGI (SF-295 CNS) of the same molecule?
A: > 93 µM

Q: What about the TGI (SK-MEL-2 melanoma) of the same molecule?
A: > 57.8 µM

Q: And the TGI (SK-MEL-5 melanoma)?
A: 14.1 µM

Q: What about the TGI (SNB-19 CNS) of the same molecule?
A: 39.6 µM

Q: And the TGI (UACC-257 melanoma)?
A: 30.4 µM

Q: For `Oc1ccccc1/C=N/c1nc2cc3sc(/N=C/c4ccccc4O)nc3cc2s1`, which TGI (CCRF-CEM leukemia) is on record?
A: > 100 µM

Q: What about the TGI (COLO 205 colon) of the same molecule?
A: 20.7 µM

Q: And the TGI (HCT-116 colon)?
A: > 100 µM

Q: What about the TGI (HS 578T breast) of the same molecule?
A: > 89 µM

Q: And the TGI (MDA-MB-435)?
A: > 100 µM

Q: And the TGI (SF-295 CNS)?
A: > 100 µM

Q: And the TGI (SK-MEL-2 melanoma)?
A: > 100 µM

Q: And the TGI (SK-MEL-5 melanoma)?
A: > 100 µM

Q: And the TGI (SNB-19 CNS)?
A: > 100 µM

Q: What about the TGI (UACC-257 melanoma) of the same molecule?
A: > 100 µM

Q: What does the source list for `C(=N\NC1=NCCCN1)/c1ccc2ccccc2c1`?
A: TGI (CCRF-CEM leukemia): 43.8 µM; TGI (COLO 205 colon): 19.3 µM; TGI (HCT-116 colon): 22.4 µM; TGI (HS 578T breast): 41.3 µM; TGI (MDA-MB-435): 18.7 µM; TGI (SF-295 CNS): 24.7 µM; TGI (SK-MEL-2 melanoma): 28.2 µM; TGI (SK-MEL-5 melanoma): 10.3 µM; TGI (SNB-19 CNS): 31.8 µM; TGI (UACC-257 melanoma): 42.5 µM

Q: Which results are given for `COc1cc(NS(C)(=O)=O)ccc1N1Cc2cnc3ccc4[nH]c(C)cc1c4c23`?
A: TGI (CCRF-CEM leukemia): > 100 µM; TGI (COLO 205 colon): > 100 µM; TGI (HCT-116 colon): > 100 µM; TGI (HS 578T breast): > 100 µM; TGI (MDA-MB-435): 50.1 µM; TGI (SF-295 CNS): > 100 µM; TGI (SK-MEL-2 melanoma): > 100 µM; TGI (SK-MEL-5 melanoma): > 100 µM; TGI (SNB-19 CNS): 32.7 µM; TGI (UACC-257 melanoma): > 100 µM
